Data on one compound can be found in ChEMBL document CHEMBL6153155, “Novel Cyclohexyl Amido Acid Antagonists of Lysophosphatidic Acid Type 1 Receptor for the Treatment of Pulmonary Fibrosis” (ACS Med Chem Lett, 2025).

For series [1], the target named is T1, ATP-binding cassette sub-family C member 4 (Homo sapiens, UniProt O15439).
T1 sequence (O15439 whole entry): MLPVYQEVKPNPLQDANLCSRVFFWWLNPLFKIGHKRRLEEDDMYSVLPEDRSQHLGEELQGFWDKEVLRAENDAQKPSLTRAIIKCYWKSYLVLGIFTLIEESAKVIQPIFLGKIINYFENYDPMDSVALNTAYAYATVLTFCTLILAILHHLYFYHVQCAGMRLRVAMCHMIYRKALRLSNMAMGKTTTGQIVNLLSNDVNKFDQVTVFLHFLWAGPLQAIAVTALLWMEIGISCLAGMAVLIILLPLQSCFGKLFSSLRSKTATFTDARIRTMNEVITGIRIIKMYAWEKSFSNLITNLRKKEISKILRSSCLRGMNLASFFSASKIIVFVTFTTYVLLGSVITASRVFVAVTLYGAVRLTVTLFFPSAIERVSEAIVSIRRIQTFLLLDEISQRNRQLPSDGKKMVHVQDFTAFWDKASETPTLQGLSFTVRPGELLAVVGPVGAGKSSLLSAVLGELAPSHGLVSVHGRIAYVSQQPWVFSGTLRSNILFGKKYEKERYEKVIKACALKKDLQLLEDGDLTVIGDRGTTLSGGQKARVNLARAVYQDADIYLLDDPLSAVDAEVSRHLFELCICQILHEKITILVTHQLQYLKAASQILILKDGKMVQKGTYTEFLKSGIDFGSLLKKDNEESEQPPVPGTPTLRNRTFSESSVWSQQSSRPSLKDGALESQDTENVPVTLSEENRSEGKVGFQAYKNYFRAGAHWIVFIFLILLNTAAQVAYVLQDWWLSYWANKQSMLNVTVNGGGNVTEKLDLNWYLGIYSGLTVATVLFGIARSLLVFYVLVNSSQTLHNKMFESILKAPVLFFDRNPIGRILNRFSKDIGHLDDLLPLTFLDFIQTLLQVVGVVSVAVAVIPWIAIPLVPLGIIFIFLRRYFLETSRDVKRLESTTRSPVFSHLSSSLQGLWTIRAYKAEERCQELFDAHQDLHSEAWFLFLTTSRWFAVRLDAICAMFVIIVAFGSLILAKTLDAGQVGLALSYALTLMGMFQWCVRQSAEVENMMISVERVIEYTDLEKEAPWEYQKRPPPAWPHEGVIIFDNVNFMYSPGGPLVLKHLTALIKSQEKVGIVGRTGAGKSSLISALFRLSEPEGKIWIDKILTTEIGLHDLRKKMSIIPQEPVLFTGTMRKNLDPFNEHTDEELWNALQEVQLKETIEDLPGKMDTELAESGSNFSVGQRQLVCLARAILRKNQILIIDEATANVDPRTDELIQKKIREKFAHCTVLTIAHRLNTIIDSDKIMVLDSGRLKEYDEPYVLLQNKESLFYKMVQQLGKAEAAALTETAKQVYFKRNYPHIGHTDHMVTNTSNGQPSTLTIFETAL
As to the kind of experiment: Inhibition of MRP4 (unknown origin) in presence of ATP by membrane vesicular transport assay. The class given is cell membranes, Membrane vesicle.

The nature of series [2]: Oral bioavailability in female C57BL/6J mouse at 2 mg/kg, iv measured after 24 hrs by UPLC-MS/MS analysis. It is filed as ADME, organism-based. The conditions noted are these: in vivo.
In series [3] the target is ATP-binding cassette sub-family C member 3 (Homo sapiens, UniProt O15438). As to the kind of experiment: Inhibition of MRP3 (unknown origin) in presence of ATP by membrane vesicular transport assay. It is filed as cell membranes, Membrane vesicle.
Series [4] is described as follows: Toxicity in cynomolgus monkey assessed as abnormally cold to touch at 210 mg/kg/day, po bid measured after 4 days. The class given is organism-based, Macaca fascicularis. Conditions: in vivo, 96 h, time 4 day; call rule not given here.
Series [5] in a line: Total AUClast in female C57BL/6J mouse plasma at 30 mg/kg, po measured after 24 hrs by UPLC-MS/MS analysis. It is filed as ADME, organism-based. The conditions noted are these: in vivo.
The nature of series [6]: Half life in female C57BL/6J mouse at 2 mg/kg, iv measured after 24 hrs by UPLC-MS/MS analysis. The class given is ADME, organism-based. Conditions: in vivo.
Series [7] is described as follows: Unbound AUClast in female C57BL/6J mouse lung at 30 mg/kg, po measured after 24 hrs by UPLC-MS/MS analysis. The class given is ADME, organism-based. The conditions noted are these: in vivo.
Series [8] can be described thus: Toxicity in cynomolgus monkey assessed as appearance of sinusoidal leukocytosis in liver at 50 mg/kg, po bid by microscopic analysis. The class given is organism-based, Macaca fascicularis. Conditions: in vivo.
The target in series [9] is BSEP (Homo sapiens, UniProt O95342). Kind of series: Inhibition of BSEP in cryopreserved sandwich-cultured human hepatocytes by measuring reduction in TCA biliary clearance using taurocholic acid as substrate at 50 uM relative to control. It is filed as cell-based, Hepatocyte. Conditions: cryopreserved sandwich-cultured hepatocytes, probe taurocholic acid.
The nature of series [10]: Drug uptake in mouse lung at 30 mg/kg, po measured upto 24 hrs. The class given is ADME, organism-based. Conditions: in vivo.
Series [11] in a line: Tlast in female C57BL/6J mouse plasma at 30 mg/kg, po measured after 24 hrs by UPLC-MS/MS analysis. It is filed as ADME, organism-based. The conditions noted are these: in vivo.
Series [12] is described as follows: Unbound Cmax in female C57BL/6J mouse plasma at 30 mg/kg, po measured after 24 hrs by UPLC-MS/MS analysis. The class given is ADME, organism-based. Conditions: in vivo.
For series [13], the target named is Lysophosphatidic acid receptor 4 (Homo sapiens, UniProt Q99677). As to the kind of experiment: Antagonist activity at human LPA4 expressed in CHO cells in presence of IBMX pretreated for 30 mins followed by LPA addition and measured after 1 hrs by cAMP accumulation assay. The class given is functional, cell-based.
Series [14] in a line: Metabolic stability in female C57BL/6J mouse liver microsomes assessed as intrinsic clearance measured per mg of protein at 0.5 uM measured upto 45 mins in presence of NADPH regenerating system by HPLC-MS/MS analysis. It is filed as ADME, Microsome. The conditions noted are these: read-out: CLH.
Series [15] in a line: Toxicity in cynomolgus monkey assessed as decreased activity at 210 mg/kg/day, po bid measured after 4 days. The conditions noted are these: in vivo, 96 h, time 4 day. It is filed as organism-based, Macaca fascicularis.
Series [16] addresses Bile salt export pump (Homo sapiens, UniProt O95342). As to the kind of experiment: Inhibition of BSEP in cryopreserved sandwich-cultured human hepatocytes by measuring reduction in TCA biliary clearance using taurocholic acid as substrate. The class given is cell-based, Hepatocyte.

Sequence of BSEP (O95342 whole entry): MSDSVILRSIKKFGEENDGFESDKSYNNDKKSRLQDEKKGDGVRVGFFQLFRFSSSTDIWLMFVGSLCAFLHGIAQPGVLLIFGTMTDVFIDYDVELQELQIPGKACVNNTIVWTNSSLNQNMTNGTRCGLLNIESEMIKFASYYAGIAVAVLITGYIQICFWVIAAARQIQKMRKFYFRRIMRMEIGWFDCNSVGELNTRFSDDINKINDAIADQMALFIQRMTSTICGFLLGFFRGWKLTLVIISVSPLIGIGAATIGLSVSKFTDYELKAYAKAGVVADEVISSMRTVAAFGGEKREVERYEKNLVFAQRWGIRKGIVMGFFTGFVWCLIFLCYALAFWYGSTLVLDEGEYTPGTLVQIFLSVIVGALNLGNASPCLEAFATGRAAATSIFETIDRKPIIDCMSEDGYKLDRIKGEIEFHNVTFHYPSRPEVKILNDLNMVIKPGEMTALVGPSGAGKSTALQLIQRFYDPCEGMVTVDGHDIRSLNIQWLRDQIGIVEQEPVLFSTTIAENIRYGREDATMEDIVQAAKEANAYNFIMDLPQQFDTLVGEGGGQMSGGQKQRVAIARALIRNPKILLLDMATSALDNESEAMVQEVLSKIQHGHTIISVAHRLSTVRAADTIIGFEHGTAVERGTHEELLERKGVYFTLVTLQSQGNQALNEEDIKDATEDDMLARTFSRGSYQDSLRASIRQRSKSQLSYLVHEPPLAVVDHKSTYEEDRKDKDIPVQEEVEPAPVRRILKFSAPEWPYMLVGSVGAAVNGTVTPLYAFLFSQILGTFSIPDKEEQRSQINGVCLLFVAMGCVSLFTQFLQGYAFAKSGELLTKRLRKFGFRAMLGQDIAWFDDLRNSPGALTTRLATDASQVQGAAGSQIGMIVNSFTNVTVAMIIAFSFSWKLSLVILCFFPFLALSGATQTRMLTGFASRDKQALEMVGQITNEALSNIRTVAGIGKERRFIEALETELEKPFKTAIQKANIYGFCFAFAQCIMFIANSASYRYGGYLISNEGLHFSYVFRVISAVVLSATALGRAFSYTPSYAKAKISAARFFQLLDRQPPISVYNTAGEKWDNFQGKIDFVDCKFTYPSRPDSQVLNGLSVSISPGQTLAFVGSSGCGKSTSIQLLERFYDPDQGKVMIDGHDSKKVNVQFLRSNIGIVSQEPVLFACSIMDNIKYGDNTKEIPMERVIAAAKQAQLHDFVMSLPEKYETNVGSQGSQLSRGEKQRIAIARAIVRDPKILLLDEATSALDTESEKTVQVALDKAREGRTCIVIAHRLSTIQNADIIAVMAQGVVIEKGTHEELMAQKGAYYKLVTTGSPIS
Sequence of Bile salt export pump (O95342 whole entry): as above
Sequence of ATP-binding cassette sub-family C member 3 (O15438 whole entry): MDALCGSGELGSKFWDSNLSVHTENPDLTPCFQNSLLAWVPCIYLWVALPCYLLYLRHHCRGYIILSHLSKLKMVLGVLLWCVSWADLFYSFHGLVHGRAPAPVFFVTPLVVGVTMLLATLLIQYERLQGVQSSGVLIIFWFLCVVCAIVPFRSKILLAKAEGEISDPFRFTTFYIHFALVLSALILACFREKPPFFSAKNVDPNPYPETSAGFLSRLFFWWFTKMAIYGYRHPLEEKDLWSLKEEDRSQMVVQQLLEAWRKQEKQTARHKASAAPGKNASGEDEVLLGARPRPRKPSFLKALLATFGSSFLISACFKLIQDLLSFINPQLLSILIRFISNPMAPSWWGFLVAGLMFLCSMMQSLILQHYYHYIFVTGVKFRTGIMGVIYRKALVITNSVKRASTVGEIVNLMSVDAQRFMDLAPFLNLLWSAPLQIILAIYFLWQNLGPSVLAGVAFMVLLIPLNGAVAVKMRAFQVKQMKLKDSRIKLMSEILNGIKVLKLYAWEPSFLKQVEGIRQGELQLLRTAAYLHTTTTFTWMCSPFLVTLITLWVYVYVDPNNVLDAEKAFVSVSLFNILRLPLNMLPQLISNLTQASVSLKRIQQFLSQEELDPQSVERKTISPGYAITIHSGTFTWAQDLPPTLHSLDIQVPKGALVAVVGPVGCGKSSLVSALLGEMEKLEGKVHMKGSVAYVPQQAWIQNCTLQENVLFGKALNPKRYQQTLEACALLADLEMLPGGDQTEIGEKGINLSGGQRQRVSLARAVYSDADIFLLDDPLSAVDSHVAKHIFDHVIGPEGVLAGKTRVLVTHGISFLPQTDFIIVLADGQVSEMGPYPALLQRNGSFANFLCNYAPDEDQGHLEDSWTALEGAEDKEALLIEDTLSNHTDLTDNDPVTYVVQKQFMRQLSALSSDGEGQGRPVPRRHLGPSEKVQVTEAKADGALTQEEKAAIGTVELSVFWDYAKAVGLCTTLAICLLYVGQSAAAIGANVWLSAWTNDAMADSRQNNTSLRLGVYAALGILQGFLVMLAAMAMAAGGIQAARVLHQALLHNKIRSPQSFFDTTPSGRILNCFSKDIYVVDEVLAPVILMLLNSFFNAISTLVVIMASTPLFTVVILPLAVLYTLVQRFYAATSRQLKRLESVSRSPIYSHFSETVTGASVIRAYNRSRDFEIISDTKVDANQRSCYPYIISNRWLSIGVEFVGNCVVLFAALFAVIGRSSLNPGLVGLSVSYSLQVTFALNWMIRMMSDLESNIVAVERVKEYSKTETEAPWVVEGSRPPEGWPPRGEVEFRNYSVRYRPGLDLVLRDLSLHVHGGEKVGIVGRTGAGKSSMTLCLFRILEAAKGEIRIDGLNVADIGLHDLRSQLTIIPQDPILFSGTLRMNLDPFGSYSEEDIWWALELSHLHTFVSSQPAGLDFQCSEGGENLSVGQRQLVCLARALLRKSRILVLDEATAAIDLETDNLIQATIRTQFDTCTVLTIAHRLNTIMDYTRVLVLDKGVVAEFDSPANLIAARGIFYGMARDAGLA
Sequence of Lysophosphatidic acid receptor 4 (Q99677 whole entry): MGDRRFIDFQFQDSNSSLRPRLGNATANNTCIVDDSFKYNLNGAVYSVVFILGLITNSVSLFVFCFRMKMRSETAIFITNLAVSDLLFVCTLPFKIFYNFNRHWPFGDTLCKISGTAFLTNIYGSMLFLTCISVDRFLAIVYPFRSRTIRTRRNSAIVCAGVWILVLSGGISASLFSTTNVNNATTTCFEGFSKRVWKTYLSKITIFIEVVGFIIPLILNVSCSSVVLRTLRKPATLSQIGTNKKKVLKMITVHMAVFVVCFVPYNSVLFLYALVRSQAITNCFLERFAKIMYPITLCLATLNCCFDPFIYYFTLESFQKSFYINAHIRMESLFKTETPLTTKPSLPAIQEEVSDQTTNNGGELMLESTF

On to `Cc1nc(-c2onc(C)c2NC(=O)O[C@H](C)c2ccccc2Cl)ccc1NC(=O)[C@H]1CCCC[C@@H]1C(=O)O`, for which the IC50 in series [1] is 63.1 µM; in series [3], 25.1 µM; in series [13], 12.6 µM; in series [16] it was 39.8 µM. For the same compound, the bioavailability in series [2] was 100%. The Activity result in [4], in series [8] and in series [15] was “Toxic” in each case. In [5], the AUClast was found to be 247000 h/ng/mL. Further, the half-life in series [6] is 1.84 h. In [7], this compound came in with a fAUClast of 4624 h/ng/mL. The compound also had an inhibition at 50 µM in [9] of 50%. Also, in [10], the Drug uptake result is “Active”. This compound also displayed a Tlast in [11] of 24 h. This compound also yielded a fCmax in [12] of 1479 ng/mL. In [14], the microsomal CLint at 0.5 µM amounted to 4 µL/min/mg.
